Source: ChEMBL document CHEMBL1201862, “PubChem BioAssay data set” (2004)
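All cell lines were grown in 96-well plates and treated with compound for 48 hours. GI50: concentration for 50% inhibition of growth.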 Active and inactive are the calls of the source. Rule as the data show it: active = GI50 up to about 1.1 µM and inactive = higher.

Columns and labels:
Test in all cases: DTP human tumour cell line panel, 48 h
[1] = test system: IGROV-1
[2] = test system: OVCAR-5
[3] = test system: HOP-62
[4] = test system: T47D
[5] = test system: NCI-H226
[6] = test system: A549
[7] = test system: NCI-H460
[8] = test system: CCRF-CEM
[9] = test system: COLO 205
[10] = test system: A498
[11] = test system: SF-268
[12] = test system: SR
[13] = test system: LOX IMVI
[14] = test system: HOP-92
[15] = test system: HCC 2998
[16] = test system: TK-10
[17] = test system: SNB-75
[18] = test system: BT-549
[19] = test system: RXF 393

SMILES	GI50 [1]	GI50 [2]	GI50 [3]	GI50 [4]	GI50 [5]	GI50 [6]	GI50 [7]	GI50 [8]	GI50 [9]	GI50 [10]	GI50 [11]	GI50 [12]	GI50 [13]	GI50 [14]	GI50 [15]	GI50 [16]	GI50 [17]	GI50 [18]	GI50 [19]
CC(=O)OC1C(Oc2c(C)cc3c(c2O)[C@@H](C)CC[C@@H]3[C@@H](C)CCC=C(C)C)OCC(O)C1O (stereo not given in full)	19.1 µM (inactive)	16.9 µM (inactive)	17.3 µM (inactive)	22.4 µM (inactive)	17.6 µM (inactive)	14.8 µM (inactive)	16.9 µM (inactive)	22.8 µM (inactive)	16.6 µM (inactive)	20.3 µM (inactive)	18.2 µM (inactive)	22.9 µM (inactive)	18.2 µM (inactive)	–	–	–	–	–	–
COC1/C=C/C(C)C(C(C)C(OC)C(C)CCC(=O)C(C)C(CC(=O)O)OC)OC(=O)/C=C/C=C(\C)CC(OC)CC2=CC(=O)O[C@H](C2)C(C)C(OC)CC(OC)/C=C/C(C)C(OC)C1 (stereo not given in full)	0.0783 µM (active)	1.02 µM (active)	0.45 µM (active)	1.16 µM (inactive)	0.543 µM (active)	0.299 µM (active)	0.195 µM (active)	0.191 µM (active)	0.0977 µM (active)	0.24 µM (active)	0.0548 µM (active)	0.385 µM (active)	–	0.124 µM (active)	2.62 µM (inactive)	0.433 µM (active)	0.00746 µM (active)	–	–
COc1ccc2nc(-n3c(/C=C/c4ccccc4O)nc4ccccc4c3=O)sc2c1	39.6 µM (inactive)	> 100 µM (inactive)	> 100 µM (inactive)	–	36 µM (inactive)	39.4 µM (inactive)	> 100 µM (inactive)	16.1 µM (inactive)	> 100 µM (inactive)	29.9 µM (inactive)	> 100 µM (inactive)	–	69.5 µM (inactive)	60.8 µM (inactive)	> 100 µM (inactive)	> 100 µM (inactive)	72.1 µM (inactive)	27.5 µM (inactive)	71.6 µM (inactive)
COC1CC(n2cc(F)c(N)nc2=O)OC1CO (stereo not given)	–	> 100 µM (inactive)	> 100 µM (inactive)	–	> 100 µM (inactive)	> 100 µM (inactive)	94 µM (inactive)	> 100 µM (inactive)	> 100 µM (inactive)	–	> 100 µM (inactive)	–	> 100 µM (inactive)	> 100 µM (inactive)	9.77 µM (inactive)	> 100 µM (inactive)	> 100 µM (inactive)	–	> 100 µM (inactive)
Cc1nnc(N/N=C2/C(=O)Nc3ccccc32)nc1O	> 100 µM (inactive)	> 100 µM (inactive)	> 100 µM (inactive)	–	> 100 µM (inactive)	> 100 µM (inactive)	> 100 µM (inactive)	–	–	> 100 µM (inactive)	> 100 µM (inactive)	> 100 µM (inactive)	> 100 µM (inactive)	> 100 µM (inactive)	–	> 100 µM (inactive)	–	> 100 µM (inactive)	–
CCc1ccc2nccc(NCCCN(C)C)c2c1[N+](=O)[O-]	> 100 µM (inactive)	33.5 µM (inactive)	> 100 µM (inactive)	> 100 µM (inactive)	> 100 µM (inactive)	> 100 µM (inactive)	> 100 µM (inactive)	> 100 µM (inactive)	30.7 µM (inactive)	> 100 µM (inactive)	> 100 µM (inactive)	> 100 µM (inactive)	62.7 µM (inactive)	> 100 µM (inactive)	> 100 µM (inactive)	> 100 µM (inactive)	50 µM (inactive)	–	71.8 µM (inactive)
C=CC(C)(C)C(=C)C(=O)Nc1ccccc1I	–	> 100 µM (inactive)	> 100 µM (inactive)	> 100 µM (inactive)	> 100 µM (inactive)	> 100 µM (inactive)	> 100 µM (inactive)	19.3 µM (inactive)	> 100 µM (inactive)	> 100 µM (inactive)	> 100 µM (inactive)	86.1 µM (inactive)	73.6 µM (inactive)	> 100 µM (inactive)	> 100 µM (inactive)	–	> 100 µM (inactive)	–	> 100 µM (inactive)
CC(=O)c1ccc2c3c1O[C@H]1c4[nH]c5ccccc5c4C[C@@]4(O)[C@@H](C2)N(CC2CC2)CC[C@]314	13.6 µM (inactive)	13.2 µM (inactive)	21 µM (inactive)	19.9 µM (inactive)	17.1 µM (inactive)	1.15 µM (inactive)	0.497 µM (active)	2.06 µM (inactive)	14.9 µM (inactive)	0.333 µM (active)	13.1 µM (inactive)	–	16.9 µM (inactive)	14.5 µM (inactive)	–	18.2 µM (inactive)	–	14.5 µM (inactive)	13.8 µM (inactive)
Cc1ccc(S(=O)(=O)NNC(=O)Nc2ccc(Cl)cc2)cc1	> 100 µM (inactive)	> 100 µM (inactive)	> 100 µM (inactive)	> 100 µM (inactive)	> 100 µM (inactive)	> 100 µM (inactive)	> 100 µM (inactive)	> 100 µM (inactive)	> 100 µM (inactive)	> 100 µM (inactive)	> 100 µM (inactive)	> 100 µM (inactive)	–	> 100 µM (inactive)	> 100 µM (inactive)	> 100 µM (inactive)	25.5 µM (inactive)	–	> 100 µM (inactive)
CCON1CC(C(=O)OC)=C(O)C1=O	> 100 µM (inactive)	> 100 µM (inactive)	> 100 µM (inactive)	> 100 µM (inactive)	–	> 100 µM (inactive)	> 100 µM (inactive)	–	> 100 µM (inactive)	> 100 µM (inactive)	> 100 µM (inactive)	–	–	> 100 µM (inactive)	> 100 µM (inactive)	> 100 µM (inactive)	> 100 µM (inactive)	> 100 µM (inactive)	> 100 µM (inactive)
CCOP(=O)(OCC)/C(C#N)=C/c1[nH]cnc1C	> 100 µM (inactive)	> 100 µM (inactive)	> 100 µM (inactive)	–	> 100 µM (inactive)	> 100 µM (inactive)	> 100 µM (inactive)	> 100 µM (inactive)	> 100 µM (inactive)	> 100 µM (inactive)	> 100 µM (inactive)	> 100 µM (inactive)	> 100 µM (inactive)	> 100 µM (inactive)	> 100 µM (inactive)	> 100 µM (inactive)	> 100 µM (inactive)	> 100 µM (inactive)	> 100 µM (inactive)
CC(=O)c1c(-c2ccccc2)c(-c2ccc(OCCN(C)C)cc2)n2ccccc12	16.6 µM (inactive)	47.8 µM (inactive)	–	16.7 µM (inactive)	15.2 µM (inactive)	21.2 µM (inactive)	13.2 µM (inactive)	21 µM (inactive)	14 µM (inactive)	19.2 µM (inactive)	16.8 µM (inactive)	–	15.7 µM (inactive)	10.1 µM (inactive)	14.6 µM (inactive)	17 µM (inactive)	12.4 µM (inactive)	14.9 µM (inactive)	–
NC(=O)c1csc(C2C=CC(CO)O2)n1 (stereo not given)	> 100 µM (inactive)	> 100 µM (inactive)	> 100 µM (inactive)	–	> 100 µM (inactive)	> 100 µM (inactive)	> 100 µM (inactive)	> 100 µM (inactive)	> 100 µM (inactive)	> 100 µM (inactive)	> 100 µM (inactive)	–	> 100 µM (inactive)	> 100 µM (inactive)	> 100 µM (inactive)	> 100 µM (inactive)	–	–	–
CC(=O)c1cccc(Nc2nc3ccc(Cl)cc3c3[nH]c4ccccc4c23)c1	4.16 µM (inactive)	5.79 µM (inactive)	4.17 µM (inactive)	6.52 µM (inactive)	–	2.24 µM (inactive)	1.71 µM (inactive)	27.4 µM (inactive)	2.07 µM (inactive)	–	3.99 µM (inactive)	–	–	3.48 µM (inactive)	–	4.81 µM (inactive)	–	64.1 µM (inactive)	–
CSc1nc(C)cc(N(C)c2ccccc2)n1	36.9 µM (inactive)	> 100 µM (inactive)	45.2 µM (inactive)	–	34.5 µM (inactive)	29 µM (inactive)	40.7 µM (inactive)	38 µM (inactive)	34.8 µM (inactive)	50.1 µM (inactive)	43.8 µM (inactive)	10.7 µM (inactive)	21.1 µM (inactive)	–	> 100 µM (inactive)	33.5 µM (inactive)	27.1 µM (inactive)	–	31 µM (inactive)
CCCCN1C(=O)N(c2ccc(OCC)cc2)C2N(CCCC)C1C(C)(C)C2(C)C (stereo not given)	33.6 µM (inactive)	–	35.9 µM (inactive)	22.4 µM (inactive)	20.2 µM (inactive)	56.4 µM (inactive)	42.2 µM (inactive)	16.3 µM (inactive)	22.5 µM (inactive)	35.2 µM (inactive)	21.9 µM (inactive)	–	7.71 µM (inactive)	23.5 µM (inactive)	51.3 µM (inactive)	22.5 µM (inactive)	37.3 µM (inactive)	30.3 µM (inactive)	16.3 µM (inactive)
O=C1C(Cl)=C(NCCN2CCOCC2)C(=O)c2ncccc21	1.97 µM (inactive)	2.15 µM (inactive)	2.12 µM (inactive)	2.45 µM (inactive)	2.1 µM (inactive)	2 µM (inactive)	1.46 µM (inactive)	0.394 µM (active)	–	2.97 µM (inactive)	1.99 µM (inactive)	–	1.01 µM (active)	2.25 µM (inactive)	1.47 µM (inactive)	1.96 µM (inactive)	1.35 µM (inactive)	1.79 µM (inactive)	1.95 µM (inactive)
